Test results taken from patent US6258785A, “Crystalline 9-E-(O-methyl)oxime of 11, 12-dideoxy-3-de(2,6-dideoxy-3-C-methyl-3-O-methyl-α-L-ribohexopyrano syloxy)-6-O-methyl-12,11-(iminocarbonyl-(2-(3-(4-(3-pyridinyl)1H-imadazol-1 -yl)propyl)hydrazono))-3-oxoerythromycin” (Pfizer Inc., priority 1999, dated 2001).
Where a name gives a salt, the structure may show the parent alone.

Tests used:
[1] = type: physicochemical; settings: phosphate buffer, pH 6.5
Protocol: Amorphous 9-E-(O-methyl)oxime of 11,12-dideoxy-3-de(2,6-dideoxy-3-C-methyl-3-O-methyl-α-L-ribohexopyranosyloxy)-6-O-methyl-12,11-(iminocarbonyl-(2-(3-(4-(3-pyridinyl)-1H-imidazol-1-yl)propyl)hydrazono))-3-oxoerythromycin (130 g) was suspended in 3L of isopropyl ether containing 3% ethanol. The suspension was heated to 60° C. overnight and stirring was continued at room temperature (about 20-25° C.) for an additional 3 days. The resulting solid was collected by filtration to give 81 g of the title compound; mp 177° C. […] The crystals were characterized by the powder X-ray diffraction pattern noted below.
To a solution of amorphous 9-E-(O-methyl)oxime of 11,12-dideoxy-3-de(2,6-dideoxy-3-C-methyl-3-O-methyl-α-L-ribohexopyranosyloxy)-6-O-methyl-12,11-(iminocarbonyl-(2-(3-(4-(3-pyridinyl)-1H-imidazol-1-yl)propyl)hydrazono))-3-oxoerythromycin (200 mg) in 3 mL of CH2 Cl2 was added 1.19 mL of 2M solution of methanesulfonic acid in CH2 Cl2. The solution was stirred at room temperature (about 20-25° C.) for 15 minutes, and the solvent was evaporated. The residue was dissolved in 2 mL of ethyl acetate, and to this solution was added 1 mL of isopropyl ether. The solution was concentrated to approximately 0.5 mL and was left standing at room temperature (about 20-25° C.). The resulting crystals were collected by filtration to 175 mg of the title compound; mp: 193-194° C. […]

[2] = Hygroscopicity of crystalline form; type: physicochemical; settings: crystalline hemihydrate form of the free base

| SMILES | water solubility of the resulting crystals [1] | hygroscopicity [2] |
| --- | --- | --- |
| CC[C@H]1OC(=O)[C@H](C)C(=O)[C@H](C)[C@@H](O[C@@H]2O[C@H](C)C[C@H](N(C)C)[C@H]2O)[C@](C)(OC)C[C@@H](C)/C(=N\OC)[C@H](C)[C@H]2N(NCCCn3cnc(-c4cccnc4)c3)C(=O)N[C@]12C [Example 2, Methanesulfonic Acid Salt of 9-E-(O-Methyl)oxime of 11,12-dideoxy-3-de(2,6-dideoxy-3-C-methyl-3-O-methyl-α-L-ribohexopyranosyloxy)-6-O-methyl-12,11-(iminocarboxyl-(2-(3-(4-(3-pyridinyl)-1H-imidazol-1-yl)-propyl)hydrazo))-3-oxoerythromycin] | 24 mg/mL |  |
| CC[C@H]1OC(=O)[C@H](C)C(=O)[C@H](C)[C@@H](O[C@@H]2O[C@H](C)C[C@H](N(C)C)[C@H]2O)[C@](C)(OC)C[C@@H](C)/C(=N\OC)[C@H](C)[C@H]2N(NCCCn3cnc(-c4cccnc4)c3)C(=O)N[C@]12C [Example 1, 9-E-(O-Methyl)oxime of 11,12-Dideoxy-3-de(2. 6-dideoxy-3-C-methyl-3-O-methyl-α-L-ribohexopyranosyloxy)-6-O-methyl-12,11-(iminocarbonyl-(2-(3-(4-(3-pyridinyl)-1H-imidazol-1-yl)propyl)hydrazono))-3-oxoerythromycin hemihydrate] | greater than 11 mg/ml | non-hygroscopic |
